Key:
[1] = tested on: histamine and active HDC (53 kDa) in mouse epidermis and dermis; experiment: Histamine amount and HDC activation in ICR mouse skin after 10% sodium laurate (Sample Experiment 3); format: in vivo; details: ICR mice
Description: Male ICR mice at ages of 7 to 8 weeks, purchased from Japan SLC, were used. They were given solid feed under free water supply and subjected to preliminary rearing for 7 days or longer under a constant temperature/constant humidity environment with a temperature of 22±2° C., and a humidity of 55±10% before they were used in the test. The mice for use were subjected to the test at least 3 days after shearing/depilating of the rostral back. A 10% aqueous solution obtained by dissolving SL in distilled water was applied as a stimulating substance against the skin at 50 μL to the sheared/depilated rostral back of the mice mentioned above. Distilled water was applied to the solvent control group (Vehicle). Note concerning FIG. 5 and FIG. 6 to be described later that the mice that were not treated with the above SL aqueous solution or distilled water are called “NT (not treated).” The amount of histamine in skin was measured before applying a surfactant, 2 hrs. after application, and 24 hrs. after application (the time of application was set to 0 hr.). Skins were collected while the mice were under anesthesia after perfusion with a phosphate buffer solution (PBS) using the cardiac blood circulation system (punched out with a biopsy punch in a circular shape of a diameter of 18 mm). The amounts of histamine in the collected skins were measured. After the collected skins were immersed in PBS at 60° C. for 30 secs., they were separated into the epidermis and the dermis. Then, the amounts of histamine in the epidermis and the dermis were measured using the measurement kit. To measure the amount of histamine, tissues of both the epidermis and the dermis were pulverized to create tissue suspensions, which were subjected to centrifugation, then supernatants were collected to measure the amounts of histamine in the supernatants.

[2] = tested on: mast cell deficient mice (WBB6F1-W/W^V) and normal control mice (WBB6F1-+/+); experiment: Scratch bouts of mice after 10% sodium laurate application (Sample Experiment 2); format: in vivo, mouse; details: 10% SL aqueous solution 50 μL single application, 2 hrs. after application, both mast cell deficient and normal control mice
Description: Male mast cell deficient mice at ages of 7 to 8 weeks (WBB6F1-W/W^V mouse), purchased from Japan SLC, and normal control mice that are wild mice at ages of 7 to 8 weeks (WBB6F1-+/+mouse) were used. They were given solid feed under free water supply and subjected to preliminary rearing for 7 days or longer under a constant temperature/constant humidity environment with a temperature of 22±2° C., and a humidity of 55±10% before they were used in the test. The mice for use were subjected to the test at least 3 days after shearing/depilating of the rostral back. […] That is, a single mouse was put in each of the 4 divided sections of an acrylic box (13×9×35 cm) to be acclimated for at least 1 hr., and they were video recorded in an environment without any person to record their action. Then, by watching the video, the number of scratch bouts against the rostral back by the hind leg was counted. A series of scratching movements (movements that include scratching the rostal back, where the solution is applied, with the hind leg, then dropping the hind leg to the ground) was counted as 1 count, and the number of times scratching was performed in 60 mins. was counted by visual observation. […]

ICR mice = experiment: Scratch bouts of ICR mice after 10% SDS application (Sample Experiment 1-1); format: in vivo, mouse; details: ICR mice of 10% SDS group at Day 3, TRF 30 mg/kg oral, 30 mins. before observation, 60 mins. count
Description: The present Sample Experiment was conducted using ICR mice, and an anionic surfactant, namely, sodium dodecyl sulfate (SDS), was used as a stimulating substance to analyze the scratch bouts of mice. After SDS had been applied, terfenadine (TRF) was administered as an antihistamine to determine its effect on scratch bouts.
Male ICR mice at ages of 7 to 8 weeks, purchased from Japan SLC, were used. The mice were given solid feed under free water supply and subjected to preliminary rearing for 7 days or longer under a constant temperature/constant humidity environment with a temperature of 22±2° C., and a humidity of 55±10% before they were used in the test. The mice for use were used in the test at least 3 days after shearing/depilating the rostral back of each mouse. […]
The scratch bouts of mice were performed in view of the Kuraishi et al. report. That is, a single mouse was put in each chamber of the 4 divided sections in an acrylic box (13×9×35 cm) to be acclimated for at least an hour, and they were video recorded in an environment without any person for at least an hour a day from the day of applying the above 10% SDS aqueous solution (Day 0) to the 4th day after application (Day 4) to record their movement. Then, by watching the video, the number of scratch bouts against the rostral back by the hind leg was counted. […]

[3] = 2 hrs. after 10% SL application
[4] = 24 hrs. after 10% SL application

| Structure (SMILES) | active HDC (53 kDa) in mouse epidermis [1, 3] | histamine level in the epidermis [1, 3] | active HDC (53 kDa) in mouse epidermis [1, 4] | histamine level in the epidermis [1, 4] | histamine level of the dermis ([1]; before, 2 hrs. and 24 hrs. after 10% SL application) | scratch bouts of mice (number in 60 mins.) after stimulating substance [2] | scratch bouts of SDS-treated mice after TRF, After vs Before (ICR mice) |
| --- | --- | --- | --- | --- | --- | --- | --- |
| CCCCCCCCCCCC(=O)[O-].[Na+] [SL, sodium laurate] | increased significantly | increased | returned to the pre-application level | returned to the pre-application level | no substantial change was observed | clearly increased | – |
| CC(C)(C)c1ccc(C(O)CCCN2CCC(C(O)(c3ccccc3)c3ccccc3)CC2)cc1 (stereo not shown) [TRF, terfenadine] | – | – | – | – | – | – | effectively suppressed |

From patent US20150335558A1, “NERVE GROWTH INHIBITOR, CUTANEOUS-SENSORY-IRRITATION INHIBITOR, AND MARKER FOR CUTANEOUS-SENSORY-IRRITATION DETECTION” (HOYU CO., LTD., priority 2012, published 2015)
